# Results taken from ChEMBL document CHEMBL5360653, “Marine Alkaloid Lepadins E and H Induce Ferroptosis for Cancer Chemotherapy” (J Med Chem, 2023).
# Activity calls are given as the source filed them. The rule behind the calls is not given here.
# Assays:
# HeLa [1] = assay: Induction of apoptosis in human HeLa cells assessed as early apoptotic cells incubated at 4 uM for 24 hrs measured by annexin V-PI staining based FITC analysis (reference value: 3.59%); type: functional
# HeLa [2] = assay: Induction of apoptosis in human HeLa cells assessed as late apoptotic cells incubated at 4 uM for 24 hrs measured by annexin V-PI staining based FITC analysis (reference value: 1.81%); type: functional
# HeLa [3] = assay: Induction of apoptosis in human HeLa cells assessed as necrotic cells incubated at 8 uM for 24 hrs measured by annexin V-PI staining based FITC analysis (reference value: 0.70%); type: functional
# HeLa [4] = assay: Induction of apoptosis in human HeLa cells assessed as early apoptotic cells incubated at 10 uM for 24 hrs measured by annexin V-PI staining based FITC analysis (reference value: 3.59%); type: functional
# HeLa [5] = assay: Induction of apoptosis in human HeLa cells assessed as late apoptotic cells incubated at 10 uM for 24 hrs measured by annexin V-PI staining based FITC analysis (reference value: 1.81%); type: functional
# HeLa [6] = assay: Induction of apoptosis in human HeLa cells assessed as necrotic cells incubated at 10 uM for 24 hrs measured by annexin V-PI staining based FITC analysis (reference value: 0.70%); type: functional
# HeLa [7] = assay: Induction of apoptosis in human HeLa cells assessed as viable cells incubated at 10 uM for 24 hrs measured by annexin V-PI staining based FITC analysis (reference value: 94.2%); type: functional; conditions: read-out: Activity
# HeLa [8] = assay: Induction of apoptosis in human HeLa cells assessed as necrotic cells incubated at 10 uM for 24 hrs measured by annexin V-PI staining based FITC analysis (reference value: 0.79%); type: functional
# HeLa [9] = assay: Induction of apoptosis in human HeLa cells assessed as viable cells preincubated with PFTalpha followed by compound addition at 10 uM for 24 hrs measured by annexin V-PI staining based FITC analysis (reference value: 94.2%); type: functional; conditions: read-out: Activity
# HeLa [10] = assay: Induction of apoptosis in human HeLa cells assessed as late apoptotic cells preincubated with PFTalpha followed by compound addition at 10 uM for 24 hrs measured by annexin V-PI staining based FITC analysis (reference value: 2.3%); type: functional
# HeLa [11] = assay: Induction of ferroptosis in human HeLa cells assessed as decrease in cellular GSH level measured at 4 uM for 24 hrs by transmission electron microscopic analysis; type: functional, cell-based
# HeLa [12] = assay: Induction of ferroptosis in human HeLa cells assessed as reduction of mitochondrion volume measured at 6 uM for 24 hrs by transmission electron microscopic analysis; type: functional, cell-based
# HeLa [13] = assay: Induction of ferroptosis in human HeLa cells assessed as downregulation of GPX4 level measured at 4 to 10 uM for 24 hrs by Western blotting analysis; type: functional, cell-based; conditions: dose 4-10 µM
# B16-F10 [14] = assay: Induction of ferroptosis in mouse B16-F10 cells assessed as cell viability in presence of DFO at 10 uM; type: functional, cell-based
# B16-F10 [15] = assay: Induction of ferroptosis in mouse B16-F10 cells assessed as cell viability in presence of liproxstatin-1 at 10 uM; type: functional, cell-based
# [16] = Toxicity in immunocompetent C57BL/6J mouse allografted with B16-F10 cells assessed as change of organ index in kidney administered at 30 mg/kg, ip daily for 14 days by hematoxylin and eosin staining analysis; type: organism-based; conditions: in vivo, 336 h, time 14 day
# [17] = Toxicity in immunocompetent C57BL/6J mouse allografted with B16-F10 cells assessed as change of organ index in lungs administered at 30 mg/kg, ip daily for 14 days by hematoxylin and eosin staining analysis; type: organism-based; conditions: in vivo, 336 h, time 14 day
# [18] = Toxicity in immunocompetent C57BL/6J mouse allografted with B16-F10 cells assessed as change of organ index in thymus administered at 30 mg/kg, ip daily for 14 days by hematoxylin and eosin staining analysis; type: organism-based; conditions: in vivo, 336 h, time 14 day
# [19] = Toxicity in immunocompetent C57BL/6J mouse allografted with B16-F10 cells assessed as change of organ index in liver administered at 30 mg/kg, ip daily for 14 days by hematoxylin and eosin staining analysis; type: organism-based; conditions: in vivo, 336 h, time 14 day
# [20] = Toxicity in immunocompetent C57BL/6J mouse allografted with B16-F10 cells assessed as tissue damage in heart administered at 30 mg/kg, ip daily for 14 days by hematoxylin and eosin staining analysis; type: organism-based; conditions: in vivo, 336 h, time 14 day
# [21] = Toxicity in immunocompetent C57BL/6J mouse allografted with B16-F10 cells assessed as tissue damage in lungs administered at 30 mg/kg, ip daily for 14 days by hematoxylin and eosin staining analysis; type: organism-based; conditions: in vivo, 336 h, time 14 day
# [22] = Toxicity in immunocompetent C57BL/6J mouse allografted with B16-F10 cells assessed as tissue damage in liver administered at 30 mg/kg, ip daily for 14 days by hematoxylin and eosin staining analysis; type: organism-based; conditions: in vivo, 336 h, time 14 day
# HeLa [23] = assay: Induction of apoptosis in human HeLa cells assessed as late apoptotic cells incubated at 4 uM for 24 hrs measured by annexin V-PI staining based FITC analysis (reference value: 1.54%); type: functional
# HeLa [24] = assay: Induction of apoptosis in human HeLa cells assessed as late apoptotic cells incubated at 8 uM for 24 hrs measured by annexin V-PI staining based FITC analysis (reference value: 1.54%); type: functional
# HeLa [25] = assay: Induction of apoptosis in human HeLa cells assessed as early apoptotic cells incubated at 10 uM for 24 hrs measured by annexin V-PI staining based FITC analysis (reference value: 3.94%); type: functional
# HeLa [26] = assay: Induction of apoptosis in human HeLa cells assessed as late apoptotic cells incubated at 10 uM for 24 hrs measured by annexin V-PI staining based FITC analysis (reference value: 1.54%); type: functional
# HeLa [27] = assay: Induction of apoptosis in human HeLa cells assessed as necrotic cells incubated at 10 uM for 24 hrs measured by annexin V-PI staining based FITC analysis (reference value: 0.58%); type: functional
# HeLa [28] = assay: Induction of apoptosis in human HeLa cells assessed as viable cells incubated at 10 uM for 24 hrs measured by annexin V-PI staining based FITC analysis (reference value: 91.6%); type: functional; conditions: read-out: Activity
# HeLa [29] = assay: Induction of apoptosis in human HeLa cells assessed as late apoptotic cells incubated at 10 uM for 24 hrs measured by annexin V-PI staining based FITC analysis (reference value: 3.45%); type: functional
# HeLa [30] = assay: Induction of ferroptosis in human HeLa cells assessed as decrease in cellular GSH level measured at 6 uM for 24 hrs by transmission electron microscopic analysis; type: functional, cell-based
smiles,measurement,setting,value
CCC/C=C/C=C/C(=O)O[C@@H]1C[C@H]2[C@@H](CCCC[C@H](O)CCC)CCC[C@H]2N[C@H]1C,Activity,HeLa [1],4.56%
same,Activity,HeLa [2],2.52%
same,Activity,HeLa [3],0.5%
same,Activity,HeLa [4],66.3%
same,Activity,HeLa [5],5.53%
same,Activity,HeLa [6],2.13%
same,viability at 10 µM,HeLa [7],20.6%
same,Activity,HeLa [8],2.34%
same,viability at 10 µM,HeLa [9],46%
same,Activity,HeLa [10],19.5%
same,Activity,HeLa [11],Active
same,Activity,HeLa [12],Active
same,Activity,HeLa [13],Active
same,Activity,B16-F10 [14],Active
same,Activity,B16-F10 [15],Active
same,Activity,[16],Non-Toxic
same,Activity,[17],Non-Toxic
same,Activity,[18],Non-Toxic
same,Activity,[19],Non-Toxic
same,Activity,[20],Non-Toxic
same,Activity,[21],Non-Toxic
same,Activity,[22],Non-Toxic
CCCCC/C=C/C(=O)O[C@@H]1C[C@H]2[C@@H](CCCC[C@H](O)CCC)CCC[C@H]2N[C@H]1C,Activity,HeLa [23],2.73%
same,Activity,HeLa [24],23.7%
same,Activity,HeLa [25],22.7%
same,Activity,HeLa [26],27.3%
same,Activity,HeLa [27],4.68%
same,viability at 10 µM,HeLa [28],28%
same,Activity,HeLa [29],31.4%
same,Activity,HeLa [30],Active
